The test system of this assay is recombinant NL4-3 virus (Renilla luciferase in nef, Gag P373S; NLRluc) in MT-2 cells. In words: whole plant or invertebrate. Type of assay: cell-based, HIV. As to conditions: Renilla, NL43, luciferase activity in cells infected for 4-5 days with NLRluc recombinants, serial dilutions of inhibitor; class symbols (key in Table 1); read-out: EC50. In short, it runs like this:
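Virus from 293T transfection, titered in MT-2 by luciferase. MT-2 (RPMI, 10% HI-FBS) infected ± inhibitor serial dilutions, 4-5 d. Readout: Dual Luciferase premix (lysis:reagent:Stop & Glo 2:1:1), immediate luminescence.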
What is called EC50 is the midpoint of the concentration-response curve. On to `C=C(C)[C@@H]1CC[C@]2(NCCN3CCN(C(=O)CCC)CC3)CC[C@]3(C)[C@H](CC[C@@H]4[C@@]5(C)CC=C(c6ccc(C(=O)O)cc6)C(C)(C)[C@@H]5CC[C@]43C)[C@@H]12` [Example B61, 4-((1R,3aS,5aR,5bR,7aR,11aS,11bR,13aR,13bR)-3a-((2-(4-butyrylpiperazin-1-yl)ethyl)amino)-5a,5b,8,8,11a-pentamethyl-1-(prop-1-en-2-yl)-2,3,3a,4,5,5a,5b,6,7,7a,8,11,11a,11b,12,13,13a,13b-octadecahydro-1H-cyclopenta[a]chrysen-9-yl)benzoic acid], for which the EC50 is under 100 nM. To `C=C(C)[C@@H]1CC[C@]2(NCCN3CCN(C(=O)C4CC4)CC3)CC[C@]3(C)[C@H](CC[C@@H]4[C@@]5(C)CC=C(c6ccc(C(=O)O)cc6)C(C)(C)[C@@H]5CC[C@]43C)[C@@H]12` [Example B62, 4-((1R,3aS,5aR,5bR,7aR,11aS,11bR,13aR,13bR)-3a-((2-(4-(cyclopropanecarbonyl)piperazin-1-yl)ethyl)amino)-5a,5b,8,8,11a-pentamethyl-1-(prop-1-en-2-yl)-2,3,3a,4,5,5a,5b,6,7,7a,8,11,11a,11b,12,13,13a,13b-octadecahydro-1H-cyclopenta[a]chrysen-9-yl)benzoic acid] belongs under 100 nM; to `C=C(C)[C@@H]1CC[C@]2(NCCN3CCN(C(=O)C4(C)CC4)CC3)CC[C@]3(C)[C@H](CC[C@@H]4[C@@]5(C)CC=C(c6ccc(C(=O)O)cc6)C(C)(C)[C@@H]5CC[C@]43C)[C@@H]12` [Example B63, 4-((1R,3aS,5aR,5bR,7aR,11aS,11bR,13aR,13bR)-5a,5b,8,8,11a-pentamethyl-3a-((2-(4-(1-methylcyclopropanecarbonyl)piperazin-1-yl)ethyl)amino)-1-(prop-1-en-2-yl)-2,3,3a,4,5,5a,5b,6,7,7a,8,11,11a,11b,12,13,13a,13b-octadecahydro-1H-cyclopenta[a]chrysen-9-yl)benzoic acid], under 100 nM. With `C=C(C)[C@@H]1CC[C@]2(NCCN3CCN(C(=O)C(C)C)CC3)CC[C@]3(C)[C@H](CC[C@@H]4[C@@]5(C)CC=C(c6ccc(C(=O)O)cc6)C(C)(C)[C@@H]5CC[C@]43C)[C@@H]12` [Example B64, 4-((1R,3aS,5aR,5bR,7aR,11aS,11bR,13aR,13bR)-3a-((2-(4-isobutyrylpiperazin-1-yl)ethyl)amino)-5a,5b,8,8,11a-pentamethyl-1-(prop-1-en-2-yl)-2,3,3a,4,5,5a,5b,6,7,7a,8,11,11a,11b,12,13,13a,13b-octadecahydro-1H-cyclopenta[a]chrysen-9-yl)benzoic acid], the EC50 is under 100 nM.

These data come from patent US20140343000A1 (priority 2011, published 2014).
